ChEMBL document CHEMBL5726429, “Inhibitors of lysine specific demethylase-1” (2017)

Target: Lysine-specific histone demethylase 1A (Homo sapiens, UniProt O60341)
Experiment: In Vitro Enzyme Inhibition Assay: The enzymatic assay of LSD1 activity is based on Time Resolved-Fluorescence Resonance Energy Transfer (TR-FRET) detection. The inhibitory properties of compounds to LSD1 were determined in 384-well plate format under the following reaction conditions: 0.1-0.5 nM LSD1, 50 nM H3K4mel-biotin labeled peptide (Anaspec cat # 64355), 2 μM FAD in assay buffer of 50 mM …

IC50: < 100 nM
SMILES: Cn1c(N2CCC(N)CC2)nc(-c2ccc(C#N)c(F)c2)c(Cl)c1=O
